# In PubChem BioAssay (NCI):
#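 The concentration for 50% growth inhibition is given as GI50. At the TGI there is no net growth.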
# What was measured:
# Assay in all cases: growth of human tumour cells (NCI), 384-well format
# 786-0 renal = tested on: 786-0 renal
# ACHN renal = tested on: ACHN renal
# CAKI-1 renal = tested on: CAKI-1 renal
# CCRF-CEM leukemia = tested on: CCRF-CEM leukemia
# COLO 205 colon = tested on: COLO 205 colon
# DU-145 prostate = tested on: DU-145 prostate
# EKVX NSCLC = tested on: EKVX NSCLC
# HCC-2998 colon = tested on: HCC-2998 colon
# HCT-116 colon = tested on: HCT-116 colon
# HCT-15 colon = tested on: HCT-15 colon
# HL-60(TB) leukemia = tested on: HL-60(TB) leukemia
# HOP-92 NSCLC = tested on: HOP-92 NSCLC
# HS 578T breast = tested on: HS 578T breast
# HT29 colon = tested on: HT29 colon
# IGROV1 ovarian = tested on: IGROV1 ovarian
# K-562 leukemia = tested on: K-562 leukemia
# LOX IMVI melanoma = tested on: LOX IMVI melanoma
# M14 melanoma = tested on: M14 melanoma
# MALME-3M melanoma = tested on: MALME-3M melanoma
# MCF7 breast = tested on: MCF7 breast
# MDA-MB-435 melanoma = tested on: MDA-MB-435 melanoma
# MDA-MB-468 breast = tested on: MDA-MB-468 breast
# MOLT-4 leukemia = tested on: MOLT-4 leukemia
# NCI-H23 lung = tested on: NCI-H23 lung
# NCI-H460 NSCLC = tested on: NCI-H460 NSCLC
# NCI-H522 lung = tested on: NCI-H522 lung
# OVCAR-3 ovarian = tested on: OVCAR-3 ovarian
# OVCAR-5 ovarian = tested on: OVCAR-5 ovarian
# RPMI-8226 leukemia = tested on: RPMI-8226 leukemia
# RXF 393 renal = tested on: RXF 393 renal
# SK-MEL-2 melanoma = tested on: SK-MEL-2 melanoma
# SK-MEL-5 melanoma = tested on: SK-MEL-5 melanoma
# SN12C renal = tested on: SN12C renal
# SNB-19 CNS = tested on: SNB-19 CNS
# SNB-75 CNS = tested on: SNB-75 CNS
# T-47D breast = tested on: T-47D breast
# TK-10 renal = tested on: TK-10 renal
# U251 glioblastoma = tested on: U251 glioblastoma
# UACC-257 melanoma = tested on: UACC-257 melanoma
# UACC-62 melanoma = tested on: UACC-62 melanoma
# A498 renal = tested on: A498 renal
# A549 NSCLC = tested on: A549 NSCLC
# BT-549 breast = tested on: BT-549 breast
# HOP-62 NSCLC = tested on: HOP-62 NSCLC
# KM12 colon = tested on: KM12 colon
# MDA-MB-231 breast = tested on: MDA-MB-231 breast
# NCI-H226 lung = tested on: NCI-H226 lung
# NCI-H322M lung = tested on: NCI-H322M lung
# NCI/ADR-RES ovarian = tested on: NCI/ADR-RES ovarian
# OVCAR-4 ovarian = tested on: OVCAR-4 ovarian
# OVCAR-8 ovarian = tested on: OVCAR-8 ovarian
# PC-3 prostate = tested on: PC-3 prostate
# SF-268 CNS = tested on: SF-268 CNS
# SF-295 CNS = tested on: SF-295 CNS
# SF-539 CNS = tested on: SF-539 CNS
# SK-MEL-28 melanoma = tested on: SK-MEL-28 melanoma
# SK-OV-3 ovarian = tested on: SK-OV-3 ovarian
# SR leukemia = tested on: SR leukemia
# SW-620 colon = tested on: SW-620 colon
# UO-31 renal = tested on: UO-31 renal
smiles,measurement,setting,value
O=C1CCc2c(Oc3ccc4c(c3)[C@H]3[C@@H](O4)[C@@H]3c3nc4ccc(C(F)(F)F)cc4[nH]3)ccnc2N1,GI50,786-0 renal,3170 nM
same,TGI,786-0 renal,> 100000 nM
same,GI50,ACHN renal,241 nM
same,TGI,ACHN renal,592 nM
same,GI50,CAKI-1 renal,1260 nM
same,TGI,CAKI-1 renal,> 100000 nM
same,GI50,CCRF-CEM leukemia,1200 nM
same,TGI,CCRF-CEM leukemia,3050 nM
same,GI50,COLO 205 colon,18 nM
same,TGI,COLO 205 colon,348 nM
same,GI50,DU-145 prostate,2940 nM
same,TGI,DU-145 prostate,> 100000 nM
same,GI50,EKVX NSCLC,1640 nM
same,TGI,EKVX NSCLC,8380 nM
same,GI50,HCC-2998 colon,1200 nM
same,TGI,HCC-2998 colon,5980 nM
same,GI50,HCT-116 colon,494 nM
same,TGI,HCT-116 colon,3580 nM
same,GI50,HCT-15 colon,2420 nM
same,TGI,HCT-15 colon,> 100000 nM
same,GI50,HL-60(TB) leukemia,85.7 nM
same,TGI,HL-60(TB) leukemia,210 nM
same,GI50,HOP-92 NSCLC,1650 nM
same,TGI,HOP-92 NSCLC,3910 nM
same,GI50,HS 578T breast,1600 nM
same,TGI,HS 578T breast,7130 nM
same,GI50,HT29 colon,206 nM
same,TGI,HT29 colon,> 100000 nM
same,GI50,IGROV1 ovarian,789 nM
same,TGI,IGROV1 ovarian,7130 nM
same,GI50,K-562 leukemia,20.1 nM
same,TGI,K-562 leukemia,50 nM
same,GI50,LOX IMVI melanoma,113 nM
same,TGI,LOX IMVI melanoma,256 nM
same,GI50,M14 melanoma,13.4 nM
same,TGI,M14 melanoma,119 nM
same,TGI,MALME-3M melanoma,32.2 nM
same,GI50,MCF7 breast,294 nM
same,TGI,MCF7 breast,1170 nM
same,GI50,MDA-MB-435 melanoma,30.2 nM
same,TGI,MDA-MB-435 melanoma,169 nM
same,GI50,MDA-MB-468 breast,1060 nM
same,TGI,MDA-MB-468 breast,3330 nM
same,GI50,MOLT-4 leukemia,1140 nM
same,TGI,MOLT-4 leukemia,2380 nM
same,GI50,NCI-H23 lung,169 nM
same,TGI,NCI-H23 lung,454 nM
same,GI50,NCI-H460 NSCLC,1670 nM
same,TGI,NCI-H460 NSCLC,> 100000 nM
same,GI50,NCI-H522 lung,154 nM
same,TGI,NCI-H522 lung,292 nM
same,GI50,OVCAR-3 ovarian,3570 nM
same,TGI,OVCAR-3 ovarian,> 100000 nM
same,GI50,OVCAR-5 ovarian,793 nM
same,TGI,OVCAR-5 ovarian,> 100000 nM
same,GI50,RPMI-8226 leukemia,166 nM
same,TGI,RPMI-8226 leukemia,304 nM
same,GI50,RXF 393 renal,188 nM
same,TGI,RXF 393 renal,331 nM
same,GI50,SK-MEL-2 melanoma,258 nM
same,TGI,SK-MEL-2 melanoma,1210 nM
same,GI50,SK-MEL-5 melanoma,54.9 nM
same,TGI,SK-MEL-5 melanoma,1480 nM
same,GI50,SN12C renal,2080 nM
same,TGI,SN12C renal,> 100000 nM
same,GI50,SNB-19 CNS,4790 nM
same,TGI,SNB-19 CNS,> 100000 nM
same,GI50,SNB-75 CNS,4410 nM
same,TGI,SNB-75 CNS,> 100000 nM
same,GI50,T-47D breast,1690 nM
same,TGI,T-47D breast,6940 nM
same,GI50,TK-10 renal,1830 nM
same,TGI,TK-10 renal,8270 nM
same,GI50,U251 glioblastoma,3390 nM
same,TGI,U251 glioblastoma,> 100000 nM
same,GI50,UACC-257 melanoma,43.6 nM
same,TGI,UACC-257 melanoma,347 nM
same,GI50,UACC-62 melanoma,17.3 nM
same,TGI,UACC-62 melanoma,119 nM
Nc1ccccc1NC(=O)c1ccc(CNC(=O)OCc2cccnc2)cc1,GI50,786-0 renal,2100 nM
same,TGI,786-0 renal,14900 nM
same,GI50,A498 renal,399 nM
same,TGI,A498 renal,1860 nM
same,GI50,A549 NSCLC,1910 nM
same,TGI,A549 NSCLC,14700 nM
same,GI50,ACHN renal,600 nM
same,TGI,ACHN renal,2620 nM
same,GI50,BT-549 breast,467 nM
same,TGI,BT-549 breast,3320 nM
same,GI50,CAKI-1 renal,918 nM
same,TGI,CAKI-1 renal,2950 nM
same,GI50,CCRF-CEM leukemia,190 nM
same,TGI,CCRF-CEM leukemia,368 nM
same,GI50,COLO 205 colon,775 nM
same,TGI,COLO 205 colon,2420 nM
same,GI50,DU-145 prostate,338 nM
same,TGI,DU-145 prostate,6410 nM
same,GI50,EKVX NSCLC,2860 nM
same,TGI,EKVX NSCLC,90500 nM
same,GI50,HCC-2998 colon,558 nM
same,TGI,HCC-2998 colon,1940 nM
same,GI50,HCT-116 colon,295 nM
same,TGI,HCT-116 colon,1190 nM
same,GI50,HCT-15 colon,1440 nM
same,TGI,HCT-15 colon,9090 nM
same,GI50,HL-60(TB) leukemia,206 nM
same,TGI,HL-60(TB) leukemia,350 nM
same,GI50,HOP-62 NSCLC,785 nM
same,TGI,HOP-62 NSCLC,3620 nM
same,GI50,HOP-92 NSCLC,256 nM
same,TGI,HOP-92 NSCLC,920 nM
same,GI50,HS 578T breast,271 nM
same,TGI,HS 578T breast,1070 nM
same,GI50,HT29 colon,563 nM
same,TGI,HT29 colon,2560 nM
same,GI50,IGROV1 ovarian,363 nM
same,TGI,IGROV1 ovarian,1720 nM
same,GI50,K-562 leukemia,185 nM
same,TGI,K-562 leukemia,1160 nM
same,GI50,KM12 colon,2240 nM
same,TGI,KM12 colon,19900 nM
same,GI50,LOX IMVI melanoma,357 nM
same,TGI,LOX IMVI melanoma,1050 nM
same,GI50,M14 melanoma,658 nM
same,TGI,M14 melanoma,5660 nM
same,GI50,MALME-3M melanoma,109 nM
same,TGI,MALME-3M melanoma,255 nM
same,GI50,MCF7 breast,404 nM
same,TGI,MCF7 breast,1940 nM
same,GI50,MDA-MB-231 breast,511 nM
same,TGI,MDA-MB-231 breast,2860 nM
same,GI50,MDA-MB-435 melanoma,652 nM
same,TGI,MDA-MB-435 melanoma,2400 nM
same,GI50,MDA-MB-468 breast,244 nM
same,TGI,MDA-MB-468 breast,713 nM
same,GI50,MOLT-4 leukemia,164 nM
same,TGI,MOLT-4 leukemia,303 nM
same,GI50,NCI-H226 lung,1070 nM
same,TGI,NCI-H226 lung,4880 nM
same,GI50,NCI-H23 lung,790 nM
same,TGI,NCI-H23 lung,4450 nM
same,GI50,NCI-H322M lung,1550 nM
same,TGI,NCI-H322M lung,6500 nM
same,GI50,NCI-H460 NSCLC,352 nM
same,TGI,NCI-H460 NSCLC,7660 nM
same,GI50,NCI-H522 lung,673 nM
same,TGI,NCI-H522 lung,2680 nM
same,GI50,NCI/ADR-RES ovarian,1460 nM
same,TGI,NCI/ADR-RES ovarian,4020 nM
same,GI50,OVCAR-3 ovarian,936 nM
same,TGI,OVCAR-3 ovarian,3130 nM
same,GI50,OVCAR-4 ovarian,1330 nM
same,TGI,OVCAR-4 ovarian,3630 nM
same,GI50,OVCAR-5 ovarian,727 nM
same,TGI,OVCAR-5 ovarian,5000 nM
same,GI50,OVCAR-8 ovarian,368 nM
same,TGI,OVCAR-8 ovarian,2090 nM
same,GI50,PC-3 prostate,1040 nM
same,TGI,PC-3 prostate,16400 nM
same,GI50,RPMI-8226 leukemia,20.5 nM
same,TGI,RPMI-8226 leukemia,45.3 nM
same,GI50,RXF 393 renal,239 nM
same,TGI,RXF 393 renal,918 nM
same,GI50,SF-268 CNS,220 nM
same,TGI,SF-268 CNS,719 nM
same,GI50,SF-295 CNS,878 nM
same,TGI,SF-295 CNS,2110 nM
same,GI50,SF-539 CNS,1630 nM
same,TGI,SF-539 CNS,14800 nM
same,GI50,SK-MEL-28 melanoma,234 nM
same,TGI,SK-MEL-28 melanoma,493 nM
same,GI50,SK-MEL-5 melanoma,243 nM
same,TGI,SK-MEL-5 melanoma,457 nM
same,GI50,SK-OV-3 ovarian,1500 nM
same,TGI,SK-OV-3 ovarian,5100 nM
same,GI50,SN12C renal,1600 nM
same,TGI,SN12C renal,3280 nM
same,GI50,SNB-19 CNS,1780 nM
same,TGI,SNB-19 CNS,6060 nM
same,GI50,SNB-75 CNS,1130 nM
same,TGI,SNB-75 CNS,13700 nM
same,GI50,SR leukemia,31 nM
same,TGI,SR leukemia,105 nM
same,GI50,SW-620 colon,521 nM
same,TGI,SW-620 colon,2160 nM
same,GI50,T-47D breast,487 nM
same,TGI,T-47D breast,1220 nM
same,GI50,TK-10 renal,441 nM
same,TGI,TK-10 renal,3820 nM
same,GI50,U251 glioblastoma,607 nM
same,TGI,U251 glioblastoma,1910 nM
same,GI50,UACC-257 melanoma,375 nM
same,TGI,UACC-257 melanoma,1380 nM
same,GI50,UO-31 renal,1660 nM
same,TGI,UO-31 renal,13100 nM
